# Experimental data published in US20230203043A1, “NOVEL IMIDAZOPYRAZINE DERIVATIVES” (Hoffmann-La Roche Inc., priority 2020, published 2023).
# Structures can show the parent of a compound that is named as a salt. Where two headings read alike, the source gives them in different places.
# Tested on: Acinetobacter baumannii ATCC17961
# Assay: Antimicrobial susceptibility testing: 90% growth inhibitory concentration (IC90) determination in Iso-Sensitest broth, OD600 growth
# Type: cell-based
# Details: Acinetobacter baumannii, ATCC17961, 16 h
# Summary of the method: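 OD600 read every 20 min for 16 h at 35±2° C; inhibition taken in log phase to derive IC90. Twofold, 10-point dilutions (e.g. 50–0.097 μM final), inoculum ~5×10^(5) CFU/ml.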
# [1] = strain ATCC 17961, OD600 growth over 16 h, read-out: A. baumannii ATCC 17961 IC90
# [2] = read-out: A. baumannii ATCC 17961 IC90 (uM), strain ATCC 17961, OD600 growth over 16 h
IC90 [1] [µM],SMILES,IC90 [2] [µM]
0.3,"Cc1cc(Nc2nccn3c(-c4cn(CC(F)F)nc4C(F)(F)F)cnc23)cc(F)c1C(=O)N[C@H](C)CNC(=O)[C@H]1C[C@@H](N)C1 [Example 669, N-((R)-1-((1s,3S)-3-aminocyclobutane-1-carboxamido)propan-2-yl)-4-((3-(1-(2,2-difluoroethyl)-3-(trifluoromethyl)-1H-pyrazol-4-yl)imidazo[1,2-a]pyrazin-8-yl)amino)-2-fluoro-6-methylbenzamide]",–
0.313,"CCc1cc(Nc2nccn3c(-c4c[nH]nc4C(F)(F)F)cnc23)ccc1C(=O)NCCOCCN1CCCC1 [Example 672, 2-ethyl-N-(2-(2-(pyrrolidin-1-yl)ethoxy)ethyl)-4-((3-(3-(trifluoromethyl)-1H-pyrazol-4-yl)imidazo[1,2-a]pyrazin-8-yl)amino)benzamide]",–
0.314,"Cc1cc(Nc2nccn3c(-c4cn(CC(F)F)nc4C(F)(F)F)cnc23)cc(F)c1C(=O)N[C@H](C)CNC(=O)CN [Example 673, (R)-N-(1-(2-aminoacetamido)propan-2-yl)-4-((3-(1-(2,2-difluoroethyl)-3-(trifluoromethyl)-1H-pyrazol-4-yl)imidazo[1,2-a]pyrazin-8-yl)amino)-2-fluoro-6-methylbenzamide]",–
0.315,"C[C@@H](NC(=O)c1ccc(Nc2nccn3c(-c4cn(CC#N)nc4C(F)(F)F)cnc23)cc1Cl)C(=O)N1CC[C@@H](N)C1 [Example 674, N-[(1R)-2-[(3R)-3-aminopyrrolidin-1-yl]-1-methyl-2-oxo-ethyl]-2-chloro-4-[[3-[1-(cyanomethyl)-3-(trifluoromethyl)pyrazol-4-yl]imidazo[1,2-a]pyrazin-8-yl]amino] benzamide formate]",–
0.316,"Cc1cc(Nc2nccn3c(-c4cn(CC#N)nc4C(F)(F)F)cnc23)cc(F)c1C(=O)N1CCN(C(=O)[C@H]2[C@@H]3CNC[C@@H]32)CC1 [Example 676, 2-(4-(8-((4-(4-((1R,5S,6r)-3-azabicyclo[3.1.0]hexane-6-carbonyl)piperazine-1-carbonyl)-3-fluoro-5-methylphenyl)amino)imidazo[1,2-a]pyrazin-3-yl)-3-(trifluoromethyl)-1H-pyrazol-1-yl) acetonitrile formate]",–
0.322,"CCc1cc(Nc2nccn3c(-c4cn(CC(F)F)nc4C(F)(F)F)cnc23)ccc1C(=O)NCC(=O)N1CCNCC1 [Example 679, 4-[[3-[1-(2,2-difluoroethyl)-3-(trifluoromethyl)pyrazol-4-yl]imidazo[1,2-a]pyrazin-8-yl]amino]-2-ethyl-N-(2-oxo-2-piperazin-1-yl-ethyl) benzamide formate]",–
0.326,"C=CCn1cc(-c2cnc3c(Nc4cc(C)c(C(=O)N[C@H](C)CN)c(F)c4)nccn23)c(C(F)(F)F)n1 [Example 680, (R)-4-((3-(1-allyl-3-(trifluoromethyl)-1H-pyrazol-4-yl)imidazo[1,2-a]pyrazin-8-yl)amino)-N-(1-aminopropan-2-yl)-2-fluoro-6-methylbenzamide]",–
0.34,"CCc1cc(Nc2nccn3c(-c4cn(CC(F)F)nc4C(F)(F)F)cnc23)ccc1C(=O)N[C@H](C)CNC(=O)[C@@H]1C[C@@H](O)CN1 [Example 684, (2S,4R)-N-((R)-2-(4-((3-(1-(2,2-difluoroethyl)-3-(trifluoromethyl)-1H-pyrazol-4-yl)imidazo[1,2-a]pyrazin-8-yl)amino)-2-ethylbenzamido)propyl)-4-hydroxypyrrolidine-2-carboxamide]",–
0.34,"CCc1cc(Nc2nccn3c(-c4cn(CC#N)nc4C(F)(F)F)cnc23)ccc1C(=O)NCCCNC(=O)N1CC[C@@H](N)C1 [Example 685, (R)-3-amino-N-(3-(4-((3-(1-(cyanomethyl)-3-(trifluoromethyl)-1H-pyrazol-4-yl)imidazo[1,2-a]pyrazin-8-yl)amino)-2-ethylbenzamido)propyl) pyrrolidine-1-carboxamide formate]",–
0.343,"Cc1cc(Nc2nccn3c(-c4cn(CC#N)nc4C(F)(F)F)cnc23)ccc1C(=O)NCC(=O)N1CC[C@@H](N)C1 [Example 686, N-[2-[(3R)-3-aminopyrrolidin-1-yl]-2-oxo-ethyl]-4-[[3-[1-(cyanomethyl)-3-(trifluoromethyl)pyrazol-4-yl]imidazo[1,2-a]pyrazin-8-yl]amino]-2-methyl-benzamide]",–
0.345,"CCc1cc(Nc2nccn3c(-c4cn(CC(F)F)nc4C(F)(F)F)cnc23)ccc1C(=O)NCC(=O)N1CC[C@@H](N)C1 [Example 687, N-[2-[(3R)-3-aminopyrrolidin-1-yl]-2-oxo-ethyl]-4-[[3-[1-(2,2-difluoroethyl)-3-(trifluoromethyl)pyrazol-4-yl]imidazo[1,2-a]pyrazin-8-yl]amino]-2-ethyl-benzamideformate]",–

# Further lines, the compound ahead of its results:
SMILES,IC90 [1] [µM],IC90 [2] [µM]
"Cc1cc(Nc2nccn3c(-c4cn(CC(F)F)nc4C(F)(F)F)cnc23)cc(F)c1C(=O)N1CCN(C(=O)[C@H](C)N)CC1 [Example 664, (S)-2-amino-1-(4-(4-((3-(1-(2,2-difluoroethyl)-3-(trifluoromethyl)-1H-pyrazol-4-yl)imidazo [1,2-a]pyrazin-8-yl)amino)-2-fluoro-6-methylbenzoyl)piperazin-1-yl)propan-1-one]",0.286,–
"C[C@@H](NC(=O)c1ccc(Nc2nccn3c(-c4cn(CC#N)nc4C(F)(F)F)cnc23)cc1Cl)C(=O)N1CC[C@H](N)C1 [Example 665, N-[(1R)-2-[(3S)-3-aminopyrrolidin-1-yl]-1-methyl-2-oxo-ethyl]-2-chloro-4-[[3-[1-(cyanomethyl)-3-(trifluoromethyl)pyrazol-4-yl]imidazo[1,2-a]pyrazin-8-yl]amino]benzamide formate]",–,0.29
"CCc1cc(Nc2nccn3c(-c4cn(CC(F)F)nc4C(F)(F)F)cnc23)ccc1C(=O)NCC(=O)N1CCC(N)CC1 [Example 666, N-[2-(4-amino-1-piperidyl)-2-oxo-ethyl]-4-[[3-[1-(2,2-difluoroethyl)-3-(trifluoromethyl)pyrazol-4-yl]imidazo[1,2-a]pyrazin-8-yl]amino]-2-ethyl-benzamide formate]",–,0.291
"CCc1cc(Nc2nccn3c(-c4cn(CC(F)F)nc4C(F)(F)F)cnc23)ccc1C(=O)NCCNC(=O)[C@@H]1C[C@@H](O)CN1 [Example 667, (2S,4R)-N-(2-(4-((3-(1-(2,2-difluoroethyl)-3-(trifluoromethyl)-1H-pyrazol-4-yl)imidazo[1,2-a]pyrazin-8-yl)amino)-2-ethylbenzamido)ethyl)-4-hydroxypyrrolidine-2-carboxamide]",0.294,–
"CCc1cc(Nc2nccn3c(-c4cn(CC(F)F)nc4C(F)(F)F)cnc23)ccc1C(=O)NCC(=O)NCCN(C)C [Example 668, 4-[[3-[1-(2,2-difluoroethyl)-3-(trifluoromethyl)pyrazol-4-yl]imidazo[1,2-a]pyrazin-8-yl]amino]-N-[2-[2-(dimethylamino)ethylamino]-2-oxo-ethyl]-2-ethyl-benzamide formate]",–,0.294
"CCc1cc(Nc2nccn3c(-c4cn(C5CC(F)(F)C5)nc4C(F)(F)F)cnc23)ccc1C(=O)NCCOCCCN [Example 670, N-(2-(3-aminopropoxy)ethyl)-4-((3-(1-(3,3-difluorocyclobutyl)-3-(trifluoromethyl)-1H-pyrazol-4-yl)imidazo[1,2-a]pyrazin-8-yl)amino)-2-ethylbenzamide formate]",–,0.304
"CCc1cc(Nc2nccn3c(-c4cn(C5CCC5)nc4C(F)(F)F)cnc23)ccc1C(=O)NCC1CC1N (stereo not drawn) [Example 671, N-((2-aminocyclopropyl)methyl)-4-((3-(1-cyclobutyl-3-(trifluoromethyl)-1H-pyrazol-4-yl)imidazo[1,2-a]pyrazin-8-yl)amino)-2-ethylbenzamide formate]",–,0.309
"CCc1cc(Nc2nccn3c(-c4cn(CC#N)nc4C(F)(F)F)cnc23)ccc1C(=O)NCC(=O)NC1CC(N)C1 (stereo not drawn) [Example 675, N-[2-[(3-aminocyclobutyl)amino]-2-oxo-ethyl]-4-[[3-[1-(cyanomethyl)-3-(trifluoromethyl)pyrazol-4-yl]imidazo[1,2-a]pyrazin-8-yl]amino]-2-ethyl-benzamide formate]",–,0.315
"CCc1cc(Nc2nccn3c(-c4c[nH]nc4C(F)(F)F)cnc23)ccc1C(=O)NCCCNC(=O)[C@@H](C)N [Example 677, (R)-N-(3-(2-aminopropanamido)propyl)-2-ethyl-4-((3-(3-(trifluoromethyl)-1H-pyrazol-4-yl)imidazo [1,2-a]pyrazin-8-yl)amino)benzamide formate]",–,0.317
"CCc1cc(Nc2nccn3c(-c4cn(CC#N)nc4C(F)(F)F)cnc23)ccc1C(=O)N[C@H](C)C(=O)N1CCNCC1 [Example 678, 4-[[3-[1-(cyanomethyl)-3-(trifluoromethyl)pyrazol-4-yl]imidazo[1,2-a]pyrazin-8-yl]amino]-2-ethyl-N-[(1R)-1-methyl-2-oxo-2-piperazin-1-yl-ethyl]benzamide formate]",–,0.321
"CCc1cc(Nc2nccn3c(-c4cn(CC#N)nc4C(F)(F)F)cnc23)ccc1C(=O)NCC(=O)N1CC[C@H](N)C1 [Example 681, N-[2-[(3S)-3-aminopyrrolidin-1-yl]-2-oxo-ethyl]-4-[[3-[1-(cyanomethyl)-3-(trifluoromethyl)pyrazol-4-yl]imidazo[1,2-a]pyrazin-8-yl]amino]-2-ethyl-benzamide formate]",–,0.327
"Cc1cc(Nc2nccn3c(-c4cn(CC#N)nc4C(F)(F)F)cnc23)cc(F)c1C(=O)N1CCN(C(=O)[C@H](C)N)CC1 [Example 682, 2-(4-(8-((4-(4-(L-alanyl)piperazine-1-carbonyl)-3-fluoro-5-methylphenyl)amino)imidazo[1,2-a]pyrazin-3-yl)-3-(trifluoromethyl)-1H-pyrazol-1-yl) acetonitrile formate]",–,0.329
"C[C@@H](NC(=O)c1ccc(Nc2nccn3c(-c4cn(CC#N)nc4C(F)(F)F)cnc23)cc1Cl)C(=O)NC1CC(N)C1 (stereo partly drawn) [Example 683, N-[(1R)-2-[(3-aminocyclobutyl)amino]-1-methyl-2-oxo-ethyl]-2-chloro-4-[[3-[1-(cyanomethyl)-3-(trifluoromethyl)pyrazol-4-yl]imidazo[1,2-a]pyrazin-8-yl]amino]benzamide formate]",–,0.336
